From PubChem BioAssay (NCI)
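1) Cells in 96-well plates. 2) Compound, 48 h, 5 concentrations. 3) Linear interpolation between surrounding doses. 4) Unreached endpoint = highest concentration. Definition used: TGI = concentration required for complete inhibition of growth.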

How the values were obtained:
Test in all cases: NCI tumour cell line growth inhibition, 48 h
[1] = test system: OVCAR-4 ovarian
[2] = test system: A498 renal
[3] = test system: HCT-15 colon
[4] = test system: MDA-N
[5] = test system: SW-620 colon
[6] = test system: SNB-19 CNS
[7] = test system: CAKI-1 renal
[8] = test system: NCI/ADR-RES ovarian
[9] = test system: BT-549 breast
[10] = test system: HOP-62 NSCLC
[11] = test system: SNB-75 CNS
[12] = test system: UO-31 renal
[13] = test system: HT29 colon
[14] = test system: HCC-2998 colon
[15] = test system: UACC-257 melanoma
[16] = test system: SF-268 CNS
[17] = test system: RPMI-8226 leukemia
[18] = test system: U251 CNS
[19] = test system: RXF 393 renal
[20] = test system: PC-3 prostate
[21] = test system: EKVX NSCLC
[22] = test system: SR leukemia
[23] = test system: 786-0 renal
[24] = test system: IGROV1 ovarian
[25] = test system: UACC-62 melanoma
[26] = test system: NCI-H23 lung
[27] = test system: OVCAR-3 ovarian
[28] = test system: ACHN renal
[29] = test system: MDA-MB-435
[30] = test system: SK-OV-3 ovarian
[31] = test system: TK-10 renal
[32] = test system: A549 NSCLC
[33] = test system: SK-MEL-28 melanoma
[34] = test system: HL-60(TB) leukemia
[35] = test system: OVCAR-5 ovarian
[36] = test system: OVCAR-8 ovarian
[37] = test system: LOX IMVI melanoma
[38] = test system: HS 578T breast
[39] = test system: HCT-116 colon
[40] = test system: MCF7 breast
[41] = test system: COLO 205 colon
[42] = test system: SK-MEL-5 melanoma
[43] = test system: CCRF-CEM leukemia
[44] = test system: MOLT-4 leukemia
[45] = test system: DU-145 prostate
[46] = test system: K-562 leukemia
[47] = test system: KM12 colon
[48] = test system: MALME-3M melanoma
[49] = test system: NCI-H460 lung
[50] = test system: SF-539 CNS
[51] = test system: SF-295 CNS
[52] = test system: MDA-MB-231 breast
[53] = test system: NCI-H226 lung
[54] = test system: SN12C renal
[55] = test system: M14 melanoma
[56] = test system: HOP-92 NSCLC
[57] = test system: NCI-H522 lung
[58] = test system: T-47D breast
[59] = test system: SK-MEL-2 melanoma

Measured: TGI

O=C(C(=O)c1cc(-c2ccccc2)nc2ccc3ccccc3c12)c1ccccc1
40.7 µM: [11]
78.7 µM: [34]
49.8 µM: [1]
81.4 µM: [38]
39 µM: [39]
not listed: [56] | [57] | [58] | [59]
> 100 µM: all other assays above

CCOC(=O)NC(NCC(O)c1ccccc1)(C(F)(F)F)C(F)(F)F (centres undefined)
not listed: [1] | [8] | [20] | [23] | [36] | [41] | [51]
> 100 µM: all other assays above

Cc1cccc(NS(=O)(=O)c2ccc3c(c2)OCCOCCOCCOCCO3)c1
65.5 µM: [57]
not listed: [1] | [8] | [18] | [19] | [27] | [35] | [37] | [56] | [59]
> 100 µM: all other assays above

O=c1c(Nc2ccccc2)cn(CCOc2ccccc2)c(=O)n1CCOc1ccccc1
99.5 µM: [57]
54.4 µM: [1]
67.6 µM: [16]
41.3 µM: [10]
83.4 µM: [56]
72.3 µM: [9]
76.8 µM: [38]
not listed: [11] | [30] | [31] | [36] | [50] | [52] | [53] | [58] | [59]
> 100 µM: all other assays above

CC(C)NC(=O)OCc1c(COC(=O)NC(C)C)c(-c2cc[n+](COC(=O)CC(C)(C)C)cc2)n2c1CCC2
not listed: [11] | [13] | [16] | [25] | [28] | [29] | [31] | [33] | [35] | [37] | [39] | [45] | [47] | [48] | [49] | [58] | [59]
> 100 µM: all other assays above
